Measurements published in PMC11208336 (Frontiers in Cellular and Infection Microbiology, 2024).

Molecular target: T1, HmuY^Pe (Porphyromonas endodontalis, UniProt C3JC46)
T1 construct: gene POREN0001_0444
Test: biochemical

T1 sequence (C3JC46 entry or part of it): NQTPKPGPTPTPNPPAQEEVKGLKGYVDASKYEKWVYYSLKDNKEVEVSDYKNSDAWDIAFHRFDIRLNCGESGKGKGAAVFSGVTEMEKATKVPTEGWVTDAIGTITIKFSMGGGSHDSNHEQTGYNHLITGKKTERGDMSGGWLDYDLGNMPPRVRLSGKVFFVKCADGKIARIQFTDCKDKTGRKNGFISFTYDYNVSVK

With `C=CC1=C(C)C2=Cc3c(C=C)c(C)c4[n]3[Fe][n]3c(c(C)c(CCC(=O)O)c3=CC3=NC(=C4)C(C)=C3CCC(=O)O)=CC1=N2` [Fe(II)heme] the Kd was 41 nM.
